The test system of assay [1] is K562 human chronic myeloid leukemia cells. Briefly: CCK-8 proliferation inhibition, K562. Format: cell-based. Conditions: Homo sapiens; for inhibition at 10 µM: K562, 10 μM; for inhibition at 100 µM: K562, 100 μM. An outline of the steps: (§1)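 Single-point screen at 100 μM and 10 μM test compound, with growth inhibition determined via the CCK-8 method.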
Assay [2] relates to A549 human lung cancer cells. Briefly: CCK-8 proliferation inhibition, A549. Format: cell-based. Conditions: Homo sapiens, A549, CCK-8 method; for inhibition at 10 µM: compound concentration 10 μM; for inhibition at 100 µM: compound concentration 100 μM. An outline of the steps:
as §1
(Formazan colour is commonly taken as a measure of viable cells.)

Assay [3] deals with Hut78 T-cell Leukemia cell. Briefly: CCK-8 proliferation inhibition, Hut78. Format: cell-based. Conditions: Homo sapiens, read-out: Hut-78 (inhibition %); for inhibition at 10 µM: HuT78, 10 μM; for inhibition at 100 µM: HuT78, 100 μM. In outline: as §1
Assay [4] relates to Colo320 human rectal cancer cells. Briefly: CCK-8 proliferation inhibition, Colo320. It is filed as cell-based. Conditions: Homo sapiens, COLO 320, CCK-8 method; for inhibition at 10 µM: compound concentration 10 μM; for inhibition at 100 µM: compound concentration 100 μM. An outline of the steps: as §1
Assay [5] relates to PANC-1 human pancreatic cancer cells. Briefly: CCK-8 proliferation inhibition, PANC-1. Format: cell-based. Conditions: Homo sapiens; for inhibition at 10 µM: PANC-1, 10 μM; for inhibition at 100 µM: PANC-1, 100 μM. An outline of the steps: as §1
For assay [6], the system named is Jurkat E6-1 human T-cell lymphoma. Briefly: CCK-8 proliferation inhibition, Jurkat E6-1. It is filed as cell-based. The conditions noted are these: Homo sapiens; for inhibition at 10 µM: Jurkat E6.1, 10 μM; for inhibition at 100 µM: Jurkat E6.1, 100 μM. An outline of the steps: as §1
In a further assay the test system is histone deacetylase. Briefly: in vitro inhibition of histone deacetylase by HDAC inhibitor screening kit (Biovision K340-100). It is filed as biochemical. The method, then:
An assay for determining the in vitro inhibition activity of the compound on histone deacetylase is conducted according to the specification of HDAC inhibitor screeing kid (Biovision Company/Catalog #K340-100). […]

For assay [7], the system named is MDA-MB-435s human breast cancer cells. Briefly: CCK-8 proliferation inhibition, MDA-MB-435s. It is filed as cell-based. The conditions noted are these: Homo sapiens, MDA-MB-435S, CCK-8 method; for inhibition at 10 µM: compound concentration 10 μM; for inhibition at 100 µM: compound concentration 100 μM. In outline:
as §1

In assay [8] the test system is Hep3B2.1-7 human liver cancer cells. Briefly: CCK-8 proliferation inhibition, Hep3B2.1-7. It is filed as cell-based. The conditions noted are these: Homo sapiens, Hep3B, CCK-8 method; for inhibition at 10 µM: compound concentration 10 μM; for inhibition at 100 µM: compound concentration 100 μM. An outline of the steps: as §1
Assay [9] has as its system PC-3 human prostate cancer. Briefly: CCK-8 proliferation inhibition, PC-3. It is filed as cell-based. The conditions noted are these: Homo sapiens, CCK-8 method; for inhibition at 10 µM: compound concentration 10 μM; for inhibition at 100 µM: compound concentration 100 μM. An outline of the steps:
as §1

The values below come from patent US8889876B2, “Histone deacetylase inhibitors and uses thereof” (Jiangsu Hengyi Pharmaceutical Co., Ltd., priority 2008, dated 2014).

Each structure is given as a SMILES string.

For orientation: inhibition means the change of the read-out against control, counted positive when it falls. As for `COc1cc(COC(=O)NCc2ccc(C(=O)Nc3ccncc3N)cc2)cc(OC)c1OC` [V-14], the inhibition at 10 µM in assay [1] was 45%; in assay [2] it was -4.4%; in [3] it was 8.1%; in assay [4], 6.4%; in assay [5] it was 13%; in [6] it was 25.3%. Also, the inhibition at 10 µM in [7] came out at 9.4%; in assay [8], 3.7%; in assay [9] it was 13.7%. Further, the inhibition at 100 µM in assay [1] was determined as 62.1%; in assay [2], 40.1%; in [3], 47.5%; in assay [4], 23.3%; in [5] it was 19%; in assay [6], 72.8%. Moreover, the inhibition at 100 µM in assay [7] came to 82.9%; in assay [8] it was 31.3%; in [9], 57.4%. Besides, the “Inhibition rate(%)” value in the assay with histone deacetylase (3.91 μM) came to 12.0%; in the assay with histone deacetylase (62.5 μM) it was 32.9%; in the assay with histone deacetylase (2 mM), 77.2%.
Regarding `Nc1cnccc1NC(=O)c1ccc(CNC(=O)/C=C/c2ccccc2)cc1` [V-26], the inhibition at 10 µM in [1] worked out at 58.5%; in assay [2], 9.5%; in assay [3] it was 39.9%; in assay [4], 7.7%; in assay [5] it was 0.9%; in assay [6], 76.6%. Also, the inhibition at 10 µM in [7] worked out at 22.7%; in assay [8], 13.8%; in assay [9], 45.2%. For the same compound, the inhibition at 100 µM in [1] turned out to be 87.5%; in [2], 79.1%; in [3], 82.3%; in assay [4], 56.3%; in assay [5] it was 23.9%; in assay [6] it was 95.7%. Also, the inhibition at 100 µM in assay [7] is 81.4%; in assay [8], 75.1%; in assay [9], 72.2%. Moreover, the “Inhibition rate(%)” value in the assay on histone deacetylase (3.91 μM) was 24.8%; with histone deacetylase (62.5 μM), 56.8%; in the assay on histone deacetylase (2 mM), 58.6%.
With `Cc1ccc(/C=C/C(=O)NCc2ccc(C(=O)Nc3ccncc3N)cc2)cc1` [V-28], the inhibition at 10 µM in [1] is 64.3%; in assay [2] it was 17.1%; in assay [3], 44.4%; in assay [4], 6.5%; in assay [5], -1.7%; in assay [6] it was 84.8%. The results for the inhibition at 10 µM in assay [7], in assay [8] and in assay [9] were 25.2%, 23.5% and 48.1%, respectively. Also, the inhibition at 100 µM in [1] is 92.9%; in assay [2], 96.4%; in [3], 85.7%; in assay [4], 58.8%; in assay [5], 52%; in assay [6] it was 89.4%. Also, the values for the inhibition at 100 µM in assay [7], in [8] and in [9] were 88.8%, 60% and 75.5%, respectively. Further, the “Inhibition rate(%)” value in the assay on histone deacetylase (3.91 μM) is given as 30.4%; in the assay on histone deacetylase (62.5 μM), 56.8%; in the assay on histone deacetylase (2 mM) it was 66.0%.
With `COc1ccc(/C=C/C(=O)NCc2ccc(C(=O)Nc3ccncc3N)cc2)cc1` [V-30], the inhibition at 10 µM was 60.9% in assay [1]; 21.8% in assay [2]; 42.3% in assay [3]; 5.4% in [4]; 12.3% in assay [5]; 83.1% in [6]. The values for the inhibition at 10 µM in assay [7], in assay [8] and in assay [9] were 18%, 38.3% and 44.6%, respectively. Besides, the inhibition at 100 µM turned out to be 83.4% in assay [1]; 69.9% in assay [2]; 71.8% in assay [3]; 40.8% in assay [4]; 39.4% in assay [5]; 88.2% in assay [6]. The inhibition at 100 µM in [7] amounted to 81.4%; in assay [8], 69.2%; in assay [9], 69%. Besides, the “Inhibition rate(%)” value stood at 28.2% with histone deacetylase (3.91 μM), 56.9% in the assay on histone deacetylase (62.5 μM) and 67.5% with histone deacetylase (2 mM).
As to `Nc1cnccc1NC(=O)c1ccc(CNC(=O)/C=C/c2ccc([N+](=O)[O-])cc2)cc1` [V-38], the inhibition at 10 µM in assay [1] is 54%; in [2], 4.2%; in [3] it was 39.6%; in assay [4] it was -0.2%; in assay [5] it was 5.1%; in assay [6] it was 76.9%. Also, the inhibition at 10 µM came out at 16.6% in assay [7], 11.7% in [8] and 8.7% in assay [9]. Also, the inhibition at 100 µM in assay [1] came to 88.2%; in assay [2], 63.7%; in [3] it was 86.9%; in assay [4] it was 44.4%; in assay [5] it was 40.8%; in [6] it was 95.1%. Also, the inhibition at 100 µM in assay [7] stood at 73.6%; in assay [8], 63.5%; in assay [9], 52.6%. Also, the “Inhibition rate(%)” value in the assay with histone deacetylase (3.91 μM) is 24.2%; in the assay with histone deacetylase (62.5 μM), 55.2%; in the assay on histone deacetylase (2 mM) it was 76.1%.
With `Nc1ncccc1NC(=O)c1ccc(CNC(=O)/C=C/c2cccnc2)cc1` [V-42, N-(2-amino-3-pyridyl)-4-[(3-pyridylacryloyl)aminomethyl]benzamide], the inhibition at 10 µM turned out to be 27.9% in assay [1]; 56.3% in [2]; 28.2% in assay [3]; 26.3% in [4]; 20.8% in assay [5]; 62.4% in [6]. For the same compound, the inhibition at 10 µM worked out at 24.2% in assay [7], 21.2% in assay [8] and 81.4% in [9]. Also, the inhibition at 100 µM in [1] came to 67.7%; in assay [2] it was 88.8%; in [3] it was 55.8%; in [4], 77%; in assay [5] it was 50.6%; in [6] it was 93.7%. The inhibition at 100 µM in [7] amounted to 89.2%; in assay [8] it was 58.8%; in assay [9] it was 89.4%. For the same compound, the “Inhibition rate(%)” value in the assay with histone deacetylase (3.91 μM) was 11.4%; with histone deacetylase (62.5 μM), 40.2%; with histone deacetylase (2 mM), 82.4%.
